This note sets out measurements from patent publication US9555050B2 (BIOGEN MA INC., priority 2012, dated 2017).

The target in this test is T1, Human ATX protein (Homo sapiens, UniProt Q13822).
T1 construct: made in house
Nature of the test: ATX biochemical FRET assay with FS-3 substrate. The following applies: FS-3 substrate 2 μM, ATX 1.0 μg/mL, 30 min preincubation, 2 hours at room temperature. The text has this: ATX (Autotaxin) is a 125 KDa glycoprotein with lysophospholipase D (LPLD) activity that generates the bioactive lipid lysophosphatidic acid (LPA) from lysophosphatidylcholine (LPC). The ATX biochemical assay utilizes a FRET (fluorescence resonance energy transfer) technology platform. The fluorescence signal of FRET substrate FS-3 is quenched due to intra-molecular FRET of a fluorophore to a non-fluorescing quencher (Ferguson, C. G., et al., Org Lett. 2006 May 11; 8(10): 2023-2026, which is incorporated by reference in its entirety). ATX catalyzes the hydrolysis of the substrate which separates the dabsyl quencher from the fluorescein reporter, which becomes fluorescent. The reaction is monitored by a SpectraMax M5 (Molecular Devices, Sunnyvale, Calif.) with at excitation wavelength 485 nm and emission wavelength […].
Fatty acid free-BSA (Sigma A8806): 10 mg/mL in H2O, stored at 4° C.
2×ATX assay buffer: 100 mM Tris, 280 mM NaCl, 10 mM KCl, 2 mM CaCl2, 2 mM MgCl2, pH 7.4.
Human ATX protein: expressed and purified in house. Stored at −80° C.
Substrate FS-3 (Echelon, L-2000): 100 μg in 77.74.L H2O (1 mM stock), stored at −20° C.
384-well flat bottom plates—Corning #3575.
Compound dilution—All compounds were provided at 10 mM in 100% DMSO. In the first well, 2 μL of 10 mM compound was added to 78 μL of DMSO (1:40 dilution). In subsequent wells 3-fold dilution (total 10 dilutions) were performed.
1×ATX assay buffer was made up with a final concentration of 1 mg/mL fatty acid free-BSA using 2×ATX assay buffer, 10 mg/ml fatty acid free-BSA and ddH2O.
ATX protein was diluted with 1×ATX assay buffer to a concentration of 1.32 μg/mL (1.32×). 38 μL was added per well to the assay plate. The final concentration of ATX in the reaction as 1.0 μg/mL.
2 μL per well of compounds was transferred to provide the desired concentration. The plate was centrifuged, then incubated at room temperature for 30 minutes on the shaker.
FS-3 was diluted with 1×ATX assay buffer to a concentration of FS-3 of 10 μM (5×). Then, 10 μL was added per well to the assay plate. The final concentration of FS-3 in the reaction was 2 μM. The plate was centrifuged. The plate was kept shaking at room temperature for 2 hours. Because FS-3 substrate is light sensitive, plates were kept covered and protected from light.
Fluorescence was measured using SpectraMax M5 (excitation at 485 nm/emission at 538 nm, top read).

By pIC50 is commonly meant −log10 of the IC50, conventionally taken in molar units. A low value points to a large IC50.

pIC50: −log10 of the molar value.

In the case of `O=C(NCCCP(=O)(O)O)c1ccc2c(C(F)(F)F)c(O[C@H]3CC[C@@H](C(F)(F)F)CC3)ccc2c1` [Example 19, (3-(5-(trifluoromethyl)-6-((cis-4-(trifluoromethyl)cyclohexyl)oxy)-2-naphthamido)propyl)phosphonic acid], the pIC50 was at least 7.00.
The molecule `O=C(O)C1CCN(Cc2ccc3c(C(F)F)c(O[C@H]4CC[C@@H](C(F)(F)F)CC4)ccc3c2)CC1` [Example 21, 1-((5-(difluoromethyl)-6-((cis-4-(trifluoromethyl)cyclohexyl)oxy)naphthalen-2-yl)methyl)piperidine-4-carboxylic acid] gave a negative logarithm of the IC50 (pIC50) of at least 6.60.
For `O=C(O)C1CCN(Cc2ccc3c(C(F)(F)F)c(N[C@H]4CC[C@@H](C(F)(F)F)CC4)ccc3c2)CC1` [Example 22, 1-((5-(trifluoromethyl)-6-((cis-4-(trifluoromethyl)cyclohexyl)amino)naphthalen-2-yl)methyl)piperidine-4-carboxylic acid], the negative logarithm of the IC50 (pIC50) was at least 6.60.
In the case of `O=C(O)c1ccc(CNC(=O)c2ccc3c(C(F)(F)F)c(O[C@H]4CC[C@@H](C(F)(F)F)CC4)ccc3c2)nc1` [Example 23, 6-((5-(trifluoromethyl)-6-((cis)-4-(trifluoromethyl)cyclohexyloxy)-2-naphthamido)methyl)nicotinic acid], the negative logarithm of the IC50 (pIC50) was at least 6.30.
For the molecule `O=C(O)[C@@H]1CCCN(Cc2ccc3c(C(F)(F)F)c(O[C@H]4CC[C@@H](C(F)(F)F)CC4)ccc3c2)C1` [Example 24, (R)-1-((5-(trifluoromethyl)-6-((cis)-4-(trifluoromethyl)cyclohexyloxy)naphthalen-2-yl)methyl)piperidine-3-carboxylic acid], the negative-log IC50 (pIC50) is at least 6.30.
For the molecule `O=C(O)[C@H]1CC[C@H](CNCc2ccc3c(C(F)(F)F)c(O[C@H]4CC[C@@H](C(F)(F)F)CC4)ccc3c2)CC1` [Example 25, (trans)-4-(((5-(trifluoromethyl)-6-((cis)-4-(trifluoromethyl)cyclohexyloxy)naphthalen-2-yl)methylamino)methyl)cyclohexanecarboxylic acid], the negative logarithm of the IC50 (pIC50) is at least 6.60.
`O=C(O)[C@H]1CCCN(Cc2ccc3c(C(F)(F)F)c(O[C@H]4CC[C@@H](C(F)(F)F)CC4)ccc3c2)C1` [Example 26, (S)-1-((5-(trifluoromethyl)-6-((cis)-4-(trifluoromethyl)cyclohexyloxy)naphthalen-2-yl)methyl)piperidine-3-carboxylic acid] showed a negative-log IC50 (pIC50) of at least 6.60.
The molecule `CN(Cc1ccc2c(C(F)(F)F)c(O[C@H]3CC[C@@H](C(F)(F)F)CC3)ccc2c1)C[C@H]1CC[C@H](C(=O)O)CC1` [Example 28, (trans)-4-((methyl((5-(trifluoromethyl)-6-((cis)-4-(trifluoromethyl)cyclohexyloxy)naphthalen-2-yl)methyl)amino)methyl)cyclohexanecarboxylic acid] gave a pIC50 of at least 6.30.
Molecule `CC1(C(=O)O)CCN(Cc2ccc3c(C(F)(F)F)c(O[C@H]4CC[C@@H](C(F)(F)F)CC4)ccc3c2)CC1` [Example 30, 4-methyl-1-((5-(trifluoromethyl)-6-((cis)-4-(trifluoromethyl)cyclohexyloxy)naphthalen-2-yl)methyl)piperidine-4-carboxylic acid] showed a negative logarithm of the IC50 (pIC50) of at least 6.30.
The figure for `O=C(O)[C@H]1CC[C@H](CNCc2ccc3c(C(F)F)c(O[C@H]4CC[C@@H](C(F)(F)F)CC4)ccc3c2)CC1` [Example 34, (trans)-4-(((5-(difluoromethyl)-6-((cis)-4-(trifluoromethyl)cyclohexyloxy)naphthalen-2-yl)methylamino)methyl)cyclohexanecarboxylic acid] is at least 6.60; for `CC(NC1CC(C(=O)O)C1(C)C)c1ccc2c(C(F)(F)F)c(O[C@H]3CC[C@@H](C(F)(F)F)CC3)ccc2c1` (stereo partly drawn) [Example 37, 2,2-dimethyl-3-(1-(5-(trifluoromethyl)-6-((cis)-4-(trifluoromethyl)cyclohexyloxy)naphthalen-2-yl)ethylamino)cyclobutanecarboxylic acid] it is at least 7.00.
The figure for `CC1(C)C(NC(c2ccc3c(C(F)(F)F)c(O[C@H]4CC[C@@H](C)CC4)ccc3c2)C2CC2)CC1C(=O)O` (some centres unmarked) [Example 38] is at least 6.60; for `CC1(C)C(NC(c2ccc3c(C(F)(F)F)c(O[C@H]4CC[C@@H](C)CC4)ccc3c2)C2CCCCC2)CC1C(=O)O` (some centres unmarked) [Example 42] it is at least 6.30; for `CC1(C)C(NC(c2ccc3c(C(F)(F)F)c(O[C@H]4CC[C@@H](C(F)(F)F)CC4)ccc3c2)C2CCCCC2)CC1C(=O)O` (some centres unmarked) [Example 43] it is at least 6.30.
In the case of `CC1(C)C(NC(c2ccc3c(C(F)(F)F)c(O[C@H]4CC[C@@H](C(F)(F)F)CC4)ccc3c2)C2CC2)CC1C(=O)O` (some centres unmarked) [Example 44], the pIC50 was at least 7.00.
Regarding `C[C@H]1CC[C@@H](Oc2ccc3cc(CN4CC(CC(=O)O)C4)ccc3c2C(F)(F)F)CC1` [Example 47, 1-((5-trifluoromethyl-6-(cis-4-methylcyclohexyloxy)naphthalene-2-yl)methyl)-azetidine-3-acetic acid], the pIC50 is at least 6.30.
In turn, `C[C@H]1CC[C@@H](Oc2ccc3cc(CN4CCC[C@H](CC(=O)O)C4)ccc3c2C(F)(F)F)CC1` [Example 49, 2-((3R)-1-((6-((cis-4-Methylcyclohexyl)oxy)-5-(trifluoromethyl)naphthalen-2-yl)methyl)piperidin-3-yl)acetic acid] had a pIC50 of at least 7.00.
`CC(c1ccc2c(C(F)(F)F)c(O[C@H]3CC[C@@H](C)CC3)ccc2c1)N1CCC[C@H](CC(=O)O)C1` (stereo partly drawn) [Example 51, 2-((3R)-1-(1-(6-((cis-4-Methylcyclohexyl)oxy)-5-(trifluoromethyl)naphthalen-2-yl)ethyl)piperidin-3-yl)acetic acid] showed a negative logarithm of the IC50 (pIC50) of at least 7.00.
The molecule `CCC(c1ccc2c(C(F)(F)F)c(O[C@H]3CC[C@@H](C)CC3)ccc2c1)N1CCC[C@@H](CC(=O)O)C1` (stereo partly drawn) [Example 52, 2-((3S)-1-(1-(6-((cis-4-Methylcyclohexyl)oxy)-5-(trifluoromethyl)naphthalen-2-yl)propyl)piperidin-3-yl)acetic acid] showed a pIC50 of at least 7.00.
As to `CC(c1ccc2c(C(F)F)c(O[C@H]3CC[C@@H](C)CC3)ccc2c1)N1CCC[C@H](CC(=O)O)C1` (stereo partly drawn) [Example 53, 2-((3R)-1-(1-(6-((cis-4-Methylcyclohexyl)oxy)-5-(difluoromethyl)naphthalen-2-yl)ethyl)piperidin-3-yl)acetic acid], the pIC50 is at least 7.00.
Take `CC(c1ccc2c(C(F)F)c(O[C@H]3CC[C@@H](C)CC3)ccc2c1)N1CCC[C@@H](CC(=O)O)C1` (stereo partly drawn) [Example 54, 2-((3S)-1-(1-(6-((cis-4-Methylcyclohexyl)oxy)-5-(difluoromethyl)naphthalen-2-yl)ethyl)piperidin-3-yl)acetic acid]: the pIC50 was at least 7.00.
`C[C@H]1CC[C@@H](Oc2ccc3cc(CN4CCC[C@H](CC(=O)O)C4)ccc3c2C(F)F)CC1` [Example 56, 2-((3R)-1-((6-((cis-4-Methylcyclohexyl)oxy)-5-(difluoromethyl)naphthalen-2-yl)methyl)piperidin-3-yl)acetic acid] showed a pIC50 of at least 7.00.
On to `CCC(c1ccc2c(C(F)F)c(O[C@H]3CC[C@@H](C)CC3)ccc2c1)N1CCC[C@H](CC(=O)O)C1` (stereo partly drawn) [Example 57, 2-((3R)-1-(1-(6-((cis-4-Methylcyclohexyl)oxy)-5-(difluoromethyl)naphthalen-2-yl)propyl)piperidin-3-yl)acetic acid], for which the negative logarithm of the IC50 (pIC50) is at least 7.00.
As for `CC[C@@H](c1ccc2c(C(F)(F)F)c(O[C@H]3CC[C@@H](C)CC3)ccc2c1)N1CCC[C@H](CC(=O)O)C1` [Example 59, 2-((3R)-1-((S)-1-(6-((cis-4-Methylcyclohexyl)oxy)-5-(trifluoromethyl)naphthalen-2-yl)propyl)piperidin-3-yl)acetic acid], the pIC50 was at least 7.00.
As for `CC[C@H](c1ccc2c(C(F)(F)F)c(O[C@H]3CC[C@@H](C)CC3)ccc2c1)N1CCC[C@H](CC(=O)O)C1` [Example 60, 2-((3R)-1-((R)-1-(6-((cis-4-Methylcyclohexyl)oxy)-5-(trifluoromethyl)naphthalen-2-yl)propyl)piperidin-3-yl)acetic acid], the pIC50 was at least 7.00.
For the molecule `C[C@@H](c1ccc2c(C(F)F)c(O[C@H]3CC[C@@H](C)CC3)ccc2c1)N1CCC(C(=O)O)CC1` [Example 61, 1-((S)-1-(6-((cis-4-Methylcyclohexyl)oxy)-5-(difluoromethyl)naphthalen-2-yl)ethyl)piperidine-4-carboxylic acid], the pIC50 was at least 6.60.
